Results on twelve compounds are retold here after patent US12252484B2, “Pyrazolopyridine compounds for the treatment of autoimmune disease” (Hoffmann-La Roche Inc., priority 2018, dated 2025).

The structures appear in SMILES notation.

The target of the first assay is T1, human TLR7 (Homo sapiens, UniProt Q9NYK1).
T1 sequence (Q9NYK1 27-1049): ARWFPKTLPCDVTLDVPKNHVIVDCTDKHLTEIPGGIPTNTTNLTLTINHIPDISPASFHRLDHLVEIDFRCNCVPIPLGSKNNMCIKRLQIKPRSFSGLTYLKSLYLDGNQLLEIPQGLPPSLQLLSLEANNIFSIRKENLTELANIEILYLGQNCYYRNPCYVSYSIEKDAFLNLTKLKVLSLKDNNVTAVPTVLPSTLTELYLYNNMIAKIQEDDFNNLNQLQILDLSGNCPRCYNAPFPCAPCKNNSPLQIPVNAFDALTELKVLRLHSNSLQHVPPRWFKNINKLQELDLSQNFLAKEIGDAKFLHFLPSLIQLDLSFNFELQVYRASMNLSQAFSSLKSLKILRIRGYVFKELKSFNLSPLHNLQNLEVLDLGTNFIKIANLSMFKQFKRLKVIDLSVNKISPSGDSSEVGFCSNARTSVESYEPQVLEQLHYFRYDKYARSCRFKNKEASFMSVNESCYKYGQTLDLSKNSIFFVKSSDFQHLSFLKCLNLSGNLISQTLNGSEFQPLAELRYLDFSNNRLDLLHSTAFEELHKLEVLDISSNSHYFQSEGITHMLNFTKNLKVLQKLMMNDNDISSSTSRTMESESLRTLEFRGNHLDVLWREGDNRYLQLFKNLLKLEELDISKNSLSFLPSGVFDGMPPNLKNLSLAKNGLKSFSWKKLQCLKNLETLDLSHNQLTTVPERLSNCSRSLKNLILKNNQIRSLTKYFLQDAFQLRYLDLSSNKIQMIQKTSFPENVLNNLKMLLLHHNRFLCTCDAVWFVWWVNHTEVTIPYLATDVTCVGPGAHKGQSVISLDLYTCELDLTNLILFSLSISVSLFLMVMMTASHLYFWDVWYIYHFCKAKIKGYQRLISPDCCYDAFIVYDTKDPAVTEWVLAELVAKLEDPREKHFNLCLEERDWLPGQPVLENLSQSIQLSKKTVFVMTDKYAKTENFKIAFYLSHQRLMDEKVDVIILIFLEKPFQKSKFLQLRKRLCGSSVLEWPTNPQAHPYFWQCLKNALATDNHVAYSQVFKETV
As to the kind of experiment: HEK293-Blue-hTLR-7 cells assay (SEAP reporter, R848 stimulation).
Conditions: not given
The format is cell-based. Here is the method: The following tests were carried out in order to determine the activity of the compounds of formula (I) in HEK293-Blue-hTLR-7/8/9 cells assay.
HEK293-Blue-hTLR-7 Cells Assay:
A stable HEK293-Blue-hTLR-7 cell line was purchased from InvivoGen (Cat. #: hkb-htlr7, San Diego, California, USA). These cells were originally designed for studying the stimulation of human TLR7 by monitoring the activation of NF-κB. A SEAP (secreted embryonic alkaline phosphatase) reporter gene was placed under the control of the IFN-β minimal promoter fused to five NF-κB and AP-1-binding sites. The SEAP was induced by activating NF-κB and AP-1 via stimulating HEK-Blue hTLR7 cells with TLR7 ligands. Therefore the reporter expression was declined by TLR7 antagonist under the stimulation of a ligand, such as R848 (Resiquimod), for incubation of 20 hrs. The cell culture supernatant SEAP reporter activity was determined using QUANTI-Blue™ kit (Cat. #: rep-qb1, Invivogen, San Diego, Ca, USA) at a wavelength of 640 nm, a detection medium that turns purple or blue in the presence of alkaline phosphatase.
HEK293-Blue-hTLR7 cells were incubated at a density of 250,000˜450,000 cells/mL in a volume of 170 μL in a 96-well plate in Dulbecco's Modified Eagle's medium (DMEM) containing 4.5 g/L glucose, 50 U/mL penicillin, […], […], 2 mM L-glutamine, 10% (v/v) heat-inactivated fetal bovine serum with addition of 20 μL test compound in a serial dilution in the presence of final DMSO at 1% and 10 μL of 20 uM R848 in above DMEM, perform incubation under 37° C. in a CO2 incubator for 20 hrs. Then 20 μL of the supernatant from each well was incubated with 180 μL Quanti-blue substrate solution at 37° C. for 2 hrs and the absorbance was read at 620˜655 nm using a spectrophotometer. The signalling pathway that TLR7 activation leads to downstream NF-κB activation has been widely accepted, and therefore similar reporter assay was modified for evaluating TLR7 antagonist.
Broadly, the IC50 is the concentration at which inhibition is half-maximal. `C[C@@H]1CN(c2ccc(C#N)n3nccc23)C[C@H](C(=O)NC2CC3CCCC(C2)N3C)O1` (stereo partly drawn) [Example 35, (2R,6R)-4-(7-cyanopyrazolo[1,5-a]pyridin-4-yl)-6-methyl-N-(9-methyl-9-azabicyclo[3.3.1]nonan-3-yl)morpholine-2-carboxamide] gave an IC50 of 4 nM.

Still in this assay, the particulars now being: HEK293-Blue-hTLR-7 cells, R848 ligand, 20 hrs incubation; read-out: TLR7 IC50.
Turning to `C[C@@H]1CN(c2ccc(C#N)n3nccc23)C[C@H](C(=O)NC2C3CCC2CNC3)O1` (stereo partly drawn) [Example 26, (2R,6R)-N-(3-azabicyclo[3.2.1]octan-8-yl)-4-(7-cyanopyrazolo[1,5-a]pyridin-4-yl)-6-methyl-morpholine-2-carboxamide], the IC50 was 20 nM.

Turning to `C[C@@H]1CN(c2ccc(C#N)n3nccc23)C[C@H](C(=O)NC2C3CNCC2COC3)O1` (stereo partly drawn) [Example 27, (2R,6R)-4-(7-cyanopyrazolo[1,5-a]pyridin-4-yl)-6-methyl-N-(3-oxa-7-azabicyclo[3.3.1]nonan-9-yl)morpholine-2-carboxamide], the IC50 came out at 63 nM.

As for `C[C@@H]1CN(c2ccc(C#N)n3nccc23)C[C@H](C(=O)N2CCC3(CCNCC3)CC2)O1` [Example 28, 4-[(2R,6R)-2-(3,9-diazaspiro[5.5]undecane-3-carbonyl)-6-methyl-morpholin-4-yl]pyrazolo[1,5a]pyridine-7-carbonitrile], the IC50 amounted to 320 nM.

`C[C@@H]1CN(c2ccc(C#N)n3nccc23)C[C@H](C(=O)NC2C3CNC[C@@H]32)O1` (stereo partly drawn) [Example 31, Trans-(2R,6R)-N-(3-azabicyclo[3.1.0]hexan-6-yl)-4-(7-cyanopyrazolo[1,5-a]pyridin-4-yl)-6-methyl-morpholine-2-carboxamide]: the half-maximal inhibitory concentration (IC50) amounted to 50 nM.

On to `C[C@@H]1CN(c2ccc(C#N)n3nccc23)C[C@H](C(=O)NC2CN(C)CC23CC3)O1` (stereo partly drawn) [Example 32, (2R,6R)-4-(7-cyanopyrazolo[1,5-a]pyridin-4-yl)-6-methyl-N-(5-methyl-5-azaspiro[2.4]heptan-7-yl)morpholine-2-carboxamide], for which the IC50 stood at 31 nM.

With `C[C@@H]1CN(c2ccc(C#N)n3nccc23)C[C@H](C(=O)NC2CC3CCC(C2)N3C)O1` (stereo partly drawn) [Example 33, (2R,6R)-4-(7-cyanopyrazolo[1,5-a]pyridin-4-yl)-6-methyl-N-(8-methyl-8-azabicyclo[3.2.1]octan-3-yl)morpholine-2-carboxamide], the IC50 stood at 4 nM.

As for `C[C@@H]1CN(c2ccc(C#N)n3nccc23)C[C@H](C(=O)NC2CC3CCC2CN3C)O1` (stereo partly drawn) [Example 34, (2R,6R)-4-(7-cyanopyrazolo[1,5-a]pyridin-4-yl)-6-methyl-N-(2-methyl-2-azabicyclo[2.2.2]octan-5-yl)morpholine-2-carboxamide], the IC50 is 10 nM.

Regarding `C[C@@H]1CN(c2ccc(C#N)n3nccc23)C[C@H](C(=O)NC2CC3CC2CN3)O1` (stereo partly drawn) [Example 36, (2R,6R)-N-(2-azabicyclo[2.2.1]heptan-5-yl)-4-(7-cyanopyrazolo[1,5-a]pyridin-4-yl)-6-methyl-morpholine-2-carboxamide], the IC50 was 130 nM.

On to `C[C@@H]1CN(c2ccc(C#N)n3nccc23)C[C@H](C(=O)NC2C3CCCC2CNC3)O1` (stereo partly drawn) [Example 37, (2R,6R)-N-(3-azabicyclo[3.3.1]nonan-9-yl)-4-(7-cyanopyrazolo[1,5-a]pyridin-4-yl)-6-methyl-morpholine-2-carboxamide], for which the IC50 was found to be 9 nM.

On to `C[C@@H]1CN(c2ccc(Cl)n3nccc23)C[C@H](C(=O)NC2CCN(C)CC2)O1` [Example 38, (2R,6R)-4-(7-chloropyrazolo[1,5-a]pyridin-4-yl)-6-methyl-N-(1-methyl-4-piperidyl)morpholine-2-carboxamide], for which the IC50 worked out at 28 nM.

Turning to `C[C@@H]1CN(c2ccc(C#N)n3nccc23)C[C@H](C(=O)NCC(C)(C)CN)O1` [Example 39, (2R,6R)-N-(3-amino-2,2-dimethyl-propyl)-4-(7-cyanopyrazolo[1,5-a]pyridin-4-yl)-6-methyl-morpholine-2-carboxamide], the 50% inhibitory concentration (IC50) amounted to 30 nM.
